Where two headings read alike, the source gives them in different places.
Legend:
RORγt [1] = biological target: T1, RORγt (Homo sapiens, UniProt P51449); experiment: RORγt binding test using fluorescent-labeled synthetic ligand (TR-FRET); settings: read-out: Binding inhibitory rate of fluorescent-labeled synthetic ligand to RORγt at test compound 1 μM (%)
T1 sequence (P51449 1-497 isoform P51449-2): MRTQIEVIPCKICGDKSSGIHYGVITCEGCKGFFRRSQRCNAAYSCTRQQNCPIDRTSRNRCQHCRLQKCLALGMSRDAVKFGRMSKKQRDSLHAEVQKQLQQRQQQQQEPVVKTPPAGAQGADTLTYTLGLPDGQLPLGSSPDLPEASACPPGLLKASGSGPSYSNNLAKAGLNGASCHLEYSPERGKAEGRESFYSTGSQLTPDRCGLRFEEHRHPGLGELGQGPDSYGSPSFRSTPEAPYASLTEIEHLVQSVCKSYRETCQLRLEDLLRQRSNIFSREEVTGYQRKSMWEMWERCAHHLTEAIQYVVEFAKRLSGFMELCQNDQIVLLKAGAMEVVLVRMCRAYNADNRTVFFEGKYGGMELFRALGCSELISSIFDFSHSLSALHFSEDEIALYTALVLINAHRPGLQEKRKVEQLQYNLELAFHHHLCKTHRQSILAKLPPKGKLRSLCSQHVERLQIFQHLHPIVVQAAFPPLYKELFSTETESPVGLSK
Procedure: RORγt Binding Test Using Fluorescent-labeled Synthetic Ligand
The binding activity of the test compound to RORγt was measured by a time resolved fluorescence resonance energy transfer method (TR-FRET) utilizing histidine-tagged RORγt, fluorescent-labeled synthetic ligand, and terbium-labeled anti-histidine tag antibody (Invitrogen). First, a test compound diluted with an assay buffer (20 mM Tris-HCl (pH 7.5), 100 mM NaCl, 1 mM DTT, 0.1% BSA) was added to a 384 well plate by 3 μL. Then, RORγt diluted with an assay buffer to 240 nM was added by 3 μL, after which fluorescent-labeled synthetic ligand diluted with the assay buffer to 12 μM was added by 3 μL, and the mixture was stood at room temperature for 20 min. Thereafter, a terbium-labeled anti-histidine tag antibody diluted with the assay buffer to 8 nM was added by 3 μL. The mixture was stood at room temperature for 20 min, and fluorescence intensity (excitation wavelength 320 nm, fluorescence wavelength 520 nm, delay time 100 microseconds) was measured by Envision (PerkinElmer).

RORγt [2] = biological target: T1, RORγt; experiment: Cofactor recruitment test (Alpha Screen, biotinylated SRC-1 peptide); assay type: biochemical; settings: read-out: Signal value inhibitory rate at test compound 1 μM (%)
Procedure: Cofactor Recruitment Test
Cofactor recruitment test was performed by Alpha Screen (Histidine Detection Kit, PerkinElmer) method. First, a test compound was diluted with an assay buffer (50 mM Tris-HCl (pH 7.5), 50 mM KCl, 1 mM DTT, 0.1% BSA) and added to a 384 well plate by 5 μL. […] The mixture was stood in a dark place for 1 hr, and the signal value was measured by Envision (PerkinElmer).

RORγt [3] = biological target: T1, RORγt; experiment: RORγt binding test using fluorescent-labeled cholesterol (TR-FRET); settings: read-out: Binding inhibitory rate of fluorescent-labeled cholesterol to RORγt at test compound 1 μM (%)
Outline: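 TR-FRET displacement with His-tagged RORγt, BODIPY-cholesterol and Tb-anti-His antibody in Tris-HCl pH 7.5, 100 mM NaCl, 1 mM DTT, 0.1% BSA. Compound, RORγt and labelled cholesterol were incubated 20 min at RT, then antibody was added for another 20 min.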

RORγt [4] = biological target: T1, RORγt; experiment: Jurkat reporter test (human IL-17 ROR response element luciferase, RORγt vector); assay type: cell-based; settings: read-out: Luminescence level inhibitory rate at test compound 3 μM (%)
Outline: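 Jurkat cells were electroporated (1350 V, 10 ms, 3 pulses) with reporter constructs, then cultured overnight with compound in RPMI containing 10% lipid-reduced FCS, 10 mM HEPES pH 7.5 and 5 μM lovastatin. Luciferase was quantified by Bright-Glo luminescence after 10 min at room temperature.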

[5] = test compound 3 μM, Jurkat cells

Structure (SMILES) | inhibition at 1 µM (RORγt [1]) | inhibition at 1 µM (RORγt [2]) | inhibition at 1 µM (RORγt [3]) | inhibition at 3 µM (RORγt [4]; [5]) | inhibition at 3 µM (RORγt [4]; Jurkat)
CCOc1ccc2c(c1)CCN(C(=O)Cc1cc(O)no1)[C@H]2C(=O)Nc1cc(F)c(C(C)(C)COCCOC)c(F)c1 [Example 143, (1R)-N-(3,5-difluoro-4-(1-(2-methoxyethoxy)-2-methylpropan-2-yl)phenyl)-6-ethoxy-2-((3-hydroxy-1,2-oxazol-5-yl)acetyl)-1,2,3,4-tetrahydroisoquinoline-1-carboxamide] | 101% | 56% | 101% | 83% | –
CCOc1ccc2c(c1)CCN(C(=O)Cc1cc(O)no1)[C@H]2C(=O)Nc1ccc(C(C)(C)C)c(F)c1 [Example 67, (1R)-N-(4-tert-butyl-3-fluorophenyl)-6-ethoxy-2-((3-hydroxy-1,2-oxazol-5-yl)acetyl)-1,2,3,4-tetrahydroisoquinoline-1-carboxamide] | 102% | 87% | 103% | 100% | –
CCOc1ccc2c(n1)CCN(C(=O)c1cc(O)no1)[C@H]2C(=O)Nc1cc(F)c([Si](C)(C)C)c(F)c1 [Example 126, (5R)-N-(3,5-difluoro-4-(trimethylsilyl)phenyl)-2-ethoxy-6-((3-hydroxy-1,2-oxazol-5-yl)carbonyl)-5,6,7,8-tetrahydro-1,6-naphthyridine-5-carboxamide] | 101% | 100% | 101% | – | 102%
COc1ccc2c(c1)CCN(C(=O)Cc1cc(O)no1)[C@H]2C(=O)Nc1cc(F)c(C(C)(C)COCC(F)F)c(F)c1 [Example 159, (1R)-N-(4-(1-(2,2-difluoroethoxy)-2-methylpropan-2-yl)-3,5-difluorophenyl)-2-((3-hydroxy-1,2-oxazol-5-yl)acetyl)-6-methoxy-1,2,3,4-tetrahydroisoquinoline-1-carboxamide] | 101% | 80% | 100% | 97% | –
COc1ccc2c(c1)CCN(C(=O)Cc1cc(O)no1)[C@H]2C(=O)Nc1ccc([Si](C)(C)C)c(F)c1 [Example 73, (1R)-N-(3-fluoro-4-(trimethylsilyl)phenyl)-2-((3-hydroxy-1,2-oxazol-5-yl)acetyl)-6-methoxy-1,2,3,4-tetrahydroisoquinoline-1-carboxamide] | 102% | 90% | 102% | – | 100%
COCc1ccc2c(c1)CCN(C(=O)c1cc(O)no1)[C@H]2C(=O)Nc1cc(F)c([Si](C)(C)C)c(F)c1 [Example 131, (1R)-N-(3,5-difluoro-4-(trimethylsilyl)phenyl)-2-((3-hydroxy-1,2-oxazol-5-yl)carbonyl)-6-(methoxymethyl)-1,2,3,4-tetrahydroisoquinoline-1-carboxamide] | 101% | 100% | 103% | – | 103%
CCOc1ccc2c(c1)CCN(C(=O)c1cc(O)no1)[C@H]2C(=O)Nc1cc(F)c(C(C)(C)COC)c(F)c1 [Example 163, (1R)-N-(3,5-difluoro-4-(1-methoxy-2-methylpropan-2-yl)phenyl)-6-ethoxy-2-((3-hydroxy-1,2-oxazol-5-yl)carbonyl)-1,2,3,4-tetrahydroisoquinoline-1-carboxamide] | 102% | 97% | 100% | 101% | –
COc1ccc2c(c1)CCN(C(=O)Cc1cc(O)no1)[C@H]2C(=O)Nc1cc(F)c(C(C)(C)COCC2CC2)c(F)c1 [Example 157, (1R)-N-(4-(1-(cyclopropylmethoxy)-2-methylpropan-2-yl)-3,5-difluorophenyl)-2-((3-hydroxy-1,2-oxazol-5-yl)acetyl)-6-methoxy-1,2,3,4-tetrahydroisoquinoline-1-carboxamide] | 102% | 74% | 99% | 94% | –
COCc1ccc2c(c1)CCN(C(=O)Cc1cc(O)no1)[C@H]2C(=O)Nc1ccc([Si](C)(C)C)c(F)c1 [Example 101, (1R)-N-(3-fluoro-4-(trimethylsilyl)phenyl)-2-((3-hydroxy-1,2-oxazol-5-yl)acetyl)-6-(methoxymethyl)-1,2,3,4-tetrahydroisoquinoline-1-carboxamide] | 102% | 99% | 102% | – | 103%
COc1ccc2c(n1)CCN(C(=O)Cc1cc(O)no1)C2C(=O)Nc1ccc(C(C)(C)C)c(F)c1 (stereo not drawn) [Example 41, N-(4-tert-butyl-3-fluorophenyl)-6-((3-hydroxy-1,2-oxazol-5-yl)acetyl)-2-methoxy-5,6,7,8-tetrahydro-1,6-naphthyridine-5-carboxamide] | 102% | 74.9% | 102% | 98.9% | –
CCOc1ccc2c(c1)CCN(C(=O)Cc1cc(O)no1)[C@H]2C(=O)Nc1cc(F)c2c(c1)CCC2(C)C [Example 66, (1R)-6-ethoxy-N-(7-fluoro-1,1-dimethyl-2,3-dihydro-1H-inden-5-yl)-2-((3-hydroxy-1,2-oxazol-5-yl)acetyl)-1,2,3,4-tetrahydroisoquinoline-1-carboxamide] | 102% | 82% | 102% | 99.5% | –
CCOCC(C)(C)c1c(F)cc(NC(=O)[C@H]2c3ccc(OC)cc3CCN2C(=O)Cc2cc(O)no2)cc1F [Example 170, (1R)-N-(4-(1-ethoxy-2-methylpropan-2-yl)-3,5-difluorophenyl)-2-((3-hydroxy-1,2-oxazol-5-yl)acetyl)-6-methoxy-1,2,3,4-tetrahydroisoquinoline-1-carboxamide] | 102% | 81% | 102% | 97% | –
COCC(C)(C)c1c(F)cc(NC(=O)[C@H]2c3ccc(OC)cc3CCN2C(=O)c2cc(O)no2)cc1F [Example 97, (1R)-N-(3,5-difluoro-4-(1-methoxy-2-methylpropan-2-yl)phenyl)-2-((3-hydroxy-1,2-oxazol-5-yl)carbonyl)-6-methoxy-1,2,3,4-tetrahydroisoquinoline-1-carboxamide] | 101% | 96% | 102% | 102% | –
COCC(C)(C)c1ccc(NC(=O)[C@H]2c3ccc(OC)cc3CCN2C(=O)c2cc(O)no2)cc1F [Example 69, (1R)-N-(3-fluoro-4-(1-methoxy-2-methylpropan-2-yl)phenyl)-2-((3-hydroxy-1,2-oxazol-5-yl)carbonyl)-6-methoxy-1,2,3,4-tetrahydroisoquinoline-1-carboxamide] | 101% | 83% | 102% | 100% | –
COCc1ccc2c(n1)CCN(C(=O)c1cc(O)no1)[C@H]2C(=O)Nc1cc(F)c([Si](C)(C)C)c(F)c1 [Example 136, (5R)-N-(3,5-difluoro-4-(trimethylsilyl)phenyl)-6-((3-hydroxy-1,2-oxazol-5-yl)carbonyl)-2-(methoxymethyl)-5,6,7,8-tetrahydro-1,6-naphthyridine-5-carboxamide] | 102% | 97% | 100% | – | 103%

— patent US10053468B2, “Heterocyclic compound” (TAKEDA PHARMACEUTICAL COMPANY LIMITED, priority 2013, dated 2018)
